From publication PMC6152279, “Characterization of the Fifth Putative Acetylcholinesterase in the Wolf Spider, Pardosa pseudoannulata” (Molecules : A Journal of Synthetic Chemistry and Natural …, 2017)
Where “and” joins values, the source holds several entries; their conditions need not be identical. Equal entries are not always repeated. Where two headings read alike, the source gives them in different places.

Legend:
[1] = tested on: PpAChE1; conditions: cited from earlier work; for Km / Vmax: substrate hydrolysis by PpAChE1
[2] = target: T1, PpAChE5 (Pardosa pseudoannulata, UniProt A0A1B1FIV8); assay: Substrate hydrolysis kinetics of recombinant PpAChE5; format: biochemical; conditions: for Km / Vmax: substrate hydrolysis by PpAChE5, optimal pH
T1 sequence (A0A1B1FIV8 25-553): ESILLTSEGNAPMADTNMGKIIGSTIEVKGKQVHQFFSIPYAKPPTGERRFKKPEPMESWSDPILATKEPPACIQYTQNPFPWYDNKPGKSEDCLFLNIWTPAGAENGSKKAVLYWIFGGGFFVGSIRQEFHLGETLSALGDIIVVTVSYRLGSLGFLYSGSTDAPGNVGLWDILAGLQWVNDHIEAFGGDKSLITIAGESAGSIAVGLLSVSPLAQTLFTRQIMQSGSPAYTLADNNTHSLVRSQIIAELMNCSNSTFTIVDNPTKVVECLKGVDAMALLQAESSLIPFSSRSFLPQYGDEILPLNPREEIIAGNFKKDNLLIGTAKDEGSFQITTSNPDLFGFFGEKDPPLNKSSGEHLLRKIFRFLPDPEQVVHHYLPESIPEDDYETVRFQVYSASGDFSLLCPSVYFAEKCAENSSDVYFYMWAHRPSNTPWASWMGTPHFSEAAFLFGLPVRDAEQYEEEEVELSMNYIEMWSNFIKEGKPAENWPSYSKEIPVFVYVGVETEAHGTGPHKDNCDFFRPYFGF
Excerpt: (§1) As described previously, complete coding sequence of the new putative ace gene was subcloned into the expression vector pFastBac-HTa with its specific primers (Table 5) and verified by nucleotide sequencing. The vector with an enhanced green fluorescent protein (eGFP, GenBank accession number: AAK15492), which constructed previously in our laboratory was as a control. Using baculovirus-insect expression system, Sf9 cells which infected by the recombinant Bacmid DNAs were used for protein expression, and the baculovirus culture supernatants were collected as the crude enzyme. The culture supernatants of non-infectious Sf9 cells were used as the negative control.
(§2) The methods for enzyme biochemical properties assaying were performed as described previously. Fifty microliters of enzyme, 100 μL of DTNB (75 μM) and 100 μL of substrate at different concentrations were mixed in a 96-well microplate for the enzyme activities detecting. Using Molecular Devices Thermomax Kinetic Microplate Reader, the mixed solutions were monitored for 20 min in 30 s intervals at 405 nm and three replications were used to calculate the mean level of enzyme activity. Different pH of the mixed-reaction solutions were employed for detecting enzyme optimal pH condition. Under the optimal pH of enzyme, the Michaelis–Menten constant value (KM) and maximal reaction velocity (Vmax) for each substrate were determined by fitting the velocity (ν) and substrate concentration ([S], 20–2000 μM) data to ν = Vmax [S]/(KM + [S]) using Prism 5.0 (GraphPad Software, La Jolla, CA, USA). Protein concentration was measured by the Protein-dye Binding Method according to the Micro BCA Protein Assay Kit (ThermoFisher, Waltham, MA, USA) instruction.

[3] = tested on: PpAChE2; conditions: cited from earlier work; for Km / Vmax: substrate hydrolysis by PpAChE2
[4] = tested on: PpAChE3; conditions: cited from earlier work; for Km / Vmax: substrate hydrolysis by PpAChE3
[5] = tested on: PpAChE4; conditions: cited from earlier work; for Km / Vmax: substrate hydrolysis by PpAChE4
[6] = target: T1, PpAChE5; assay: Inhibition of enzyme activity (IC50) of PpAChE5; format: biochemical; conditions: for IC50: 10 min preincubation with inhibitor
Excerpt: as §1, §2
To determine IC50 values of enzyme to different inhibitors, the enzyme was first incubated with an inhibitor at various concentrations ([I]) for 10 min. The residual enzyme activity (in reference to a mixture of the enzyme and buffer) was determined as above and plotted against −log10[I]. The IC50 value for each inhibitor was determined from nonlinear regression analysis of activity and −log10[I] data using Prism 5.0 (GraphPad Software, La Jolla, CA, USA). The bimolecular rate constant (ki) was determined by enzyme reaction premixed with various concentrations of an inhibitor and was fitted using Prism 5.0.

[7] = tested on: PpAChE4; conditions: cited from earlier work
[8] = tested on: PpAChE1; conditions: cited from earlier work
[9] = tested on: PpAChE2; conditions: cited from earlier work
[10] = tested on: PpAChE3; conditions: cited from earlier work
[11] = target: T1, PpAChE5; assay: Inhibition kinetics (bimolecular rate constant ki) of PpAChE5; format: biochemical; conditions: ATC hydrolysis
Excerpt: as §1
The methods for enzyme biochemical properties assaying were performed as described previously. Fifty microliters of enzyme, 100 μL of DTNB (75 μM) and 100 μL of substrate at different concentrations were mixed in a 96-well microplate for the enzyme activities detecting. Using Molecular Devices Thermomax Kinetic Microplate Reader, the mixed solutions were monitored for 20 min in 30 s intervals at 405 nm and three replications were used to calculate the mean level of enzyme activity. […] Protein concentration was measured by the Protein-dye Binding Method according to the Micro BCA Protein Assay Kit (ThermoFisher, Waltham, MA, USA) instruction. […]

**Q.** Which results are given for CC(=O)SCC[N+](C)(C)C.[I-] [ATC, acetylthiocholine iodide]?
**A.** Vmax Ratio ATC vs. BTC ([1]; PpAChE1): 1.18; Vmax Ratio ATC vs. PTC ([1]; PpAChE1): 1.48; Km [1]: 537 ± 63.4 µM; Vmax [1]: 112.6 ± 8.8 c nmol/mg·min; Vmax Ratio ATC vs. BTC ([2]; PpAChE5): 4.6 and 4.68; Vmax Ratio ATC vs. PTC ([2]; PpAChE5): 7.2 and 7.26; Km [2]: 1300 ± 163 µM; Vmax [2]: 428.4 ± 29.2 a nmol/mg·min; Vmax Ratio ATC vs. BTC ([3]; PpAChE2): 1.09; Vmax Ratio ATC vs. PTC ([3]; PpAChE2): 1.62; Km [3]: 4410 ± 534 µM; Vmax [3]: 253.9 ± 20.4 b nmol/mg·min; Vmax Ratio ATC vs. BTC ([4]; PpAChE3): 3.09; Vmax Ratio ATC vs. PTC ([4]; PpAChE3): 1.17; Km [4]: 42.9 ± 5.8 µM; Vmax [4]: 124.7 ± 11.5 c nmol/mg·min; Vmax Ratio ATC vs. BTC ([5]; PpAChE4): 0.82; Vmax Ratio ATC vs. PTC ([5]; PpAChE4): 1.74; Km [5]: 61.6 ± 7.5 µM; Vmax [5]: 86.6 ± 9.7 d nmol/mg·min

**Q.** What does the source list for CCCC(=O)SCC[N+](C)(C)C.[I-] [BTC, butyrylthiocholine iodide]?
**A.** Vmax Ratio BTC vs. BTC ([1]; PpAChE1): 1.25; Km [1]: 859 ± 103 µM; Vmax [1]: 95.4 ± 12.8 b nmol/mg·min; Vmax Ratio BTC vs. BTC ([2]; PpAChE5): 1.55; Km [2]: 1530 ± 118 µM; Vmax [2]: 91.6 ± 11.3 b nmol/mg·min; Vmax Ratio BTC vs. BTC ([3]; PpAChE2): 1.49; Km [3]: 4540 ± 326 µM; Vmax [3]: 233.9 ± 16.5 a nmol/mg·min; Km [4]: 199 ± 22.3 µM; Vmax [4]: 40.3 ± 5.6 c nmol/mg·min; Vmax Ratio BTC vs. BTC ([5]; PpAChE4): 2.12; Km [5]: 269 ± 35.5 µM; Vmax [5]: 105.5 ± 8.9 b nmol/mg·min

**Q.** What does the source list for C=CC[N+](C)(C)c1ccc(CCC(=O)CCc2ccc([N+](C)(C)CC=C)cc2)cc1.[Br-].[Br-] [BW284C51, 1,5-bis(4-allyldimethylammoniumphenyl)-pentan-3-one dibromide]?
**A.** inhibition on ATC hydrolysis activity of PpAChE5 ([6]; in words): strong inhibition; IC50 ([6]; PpAChE5, on ATC hydrolysis): 471 ± 69.3 nM; IC50 ([7]; PpAChE4, on ATC hydrolysis): 73.6 ± 10.5 nM; IC50 ([8]; PpAChE1, on ATC hydrolysis): 51.2 ± 7.6 nM; IC50 ([9]; PpAChE2, on ATC hydrolysis): 2540 ± 214 nM; IC50 ([10]; PpAChE3, on ATC hydrolysis): 36.8 ± 5.3 nM

**Q.** Which “inhibition on ATC hydrolysis activity of PpAChE5” value ([6]; in words) does the source give for CNC(=O)Oc1ccc2c(c1)[C@]1(C)CCN(C)[C@@H]1N2C [Eserine, eserine] here?
**A.** strong inhibition

**Q.** What about the IC50 ([6]; PpAChE5, on ATC hydrolysis) of the same molecule?
**A.** 1160 ± 157 nM

**Q.** And the IC50 ([7]; PpAChE4, on ATC hydrolysis)?
**A.** 245 ± 39.4 nM

**Q.** And the IC50 ([8]; PpAChE1, on ATC hydrolysis)?
**A.** 117 ± 20.6 nM

**Q.** And the IC50 ([9]; PpAChE2, on ATC hydrolysis)?
**A.** 1860 ± 251 nM

**Q.** And the IC50 ([10]; PpAChE3, on ATC hydrolysis)?
**A.** 65.2 ± 18 nM

**Q.** What about the ki [11] of the same molecule?
**A.** 6.24 ± 1.72 b ×10^−7M^−1min^−1

**Q.** Which “inhibition against BTC hydrolysis” value ([6]; PpAChE5, BTC hydrolysis, in words) does the source give for CC(C)NP(=O)(NC(C)C)OP(=O)(NC(C)C)NC(C)C [ISO-OMPA, tetraisopropyl pyrophosphoramide] here?
**A.** very weak inhibition

**Q.** And the IC50 ([6]; PpAChE5, on BTC hydrolysis)?
**A.** > 100000 nM

**Q.** And the IC50 ([7]; PpAChE4, on BTC hydrolysis)?
**A.** > 100000 nM

**Q.** What about the IC50 ([8]; PpAChE1, on BTC hydrolysis) of the same molecule?
**A.** > 100000 nM

**Q.** What about the IC50 ([9]; PpAChE2, on BTC hydrolysis) of the same molecule?
**A.** 21700 ± 3260 nM

**Q.** And the IC50 ([10]; PpAChE3, on BTC hydrolysis)?
**A.** > 100000 nM

**Q.** Which Km [1] does the source give for CCC(=O)SCC[N+](C)(C)C.[I-] [PTC, propionylthiocholine iodide] here?
**A.** 1150 ± 134 µM

**Q.** What about the Vmax [1] of the same molecule?
**A.** 76.2 ± 9.2 c nmol/mg·min

**Q.** And the Km [2]?
**A.** 1550 ± 129 µM

**Q.** And the Vmax [2]?
**A.** 59.0 ± 7.2 cd nmol/mg·min

**Q.** And the Km [3]?
**A.** 4500 ± 319 µM

**Q.** What about the Vmax [3] of the same molecule?
**A.** 156.8 ± 21.3 a nmol/mg·min

**Q.** What about the Km [4] of the same molecule?
**A.** 504 ± 86.8 µM

**Q.** And the Vmax [4]?
**A.** 106.2 ± 15.1 b nmol/mg·min

**Q.** And the Km [5]?
**A.** 279 ± 35.2 µM

**Q.** And the Vmax [5]?
**A.** 49.7 ± 8.4 d nmol/mg·min
